Experimental data from ChEMBL document CHEMBL1138478, “Application of a proteolysis/mass spectrometry method for investigating the effects of inhibitors on hydroxylase structure” (J Med Chem, 2009).

Assay: Inhibition of human recombinant PHD2 (181-426) expressed in Escherichia coli BL21 (DE3) by TR-FRET assay

Row | IC50 | SMILES
1 | 1.91 µM | O=C(O)c1ccnc(C(=O)O)c1
2 | 19.1 µM | O=C(O)/C=C/C(=O)O [FUMARIC ACID]
